For the assay, the target named is T1, Or10a (Drosophila melanogaster, UniProt Q9VYZ1).
T1 construct: his-tag; made in house; host or cells: baculovirus-infected Sf9 cells
T1 sequence (Q9VYZ1 1-406): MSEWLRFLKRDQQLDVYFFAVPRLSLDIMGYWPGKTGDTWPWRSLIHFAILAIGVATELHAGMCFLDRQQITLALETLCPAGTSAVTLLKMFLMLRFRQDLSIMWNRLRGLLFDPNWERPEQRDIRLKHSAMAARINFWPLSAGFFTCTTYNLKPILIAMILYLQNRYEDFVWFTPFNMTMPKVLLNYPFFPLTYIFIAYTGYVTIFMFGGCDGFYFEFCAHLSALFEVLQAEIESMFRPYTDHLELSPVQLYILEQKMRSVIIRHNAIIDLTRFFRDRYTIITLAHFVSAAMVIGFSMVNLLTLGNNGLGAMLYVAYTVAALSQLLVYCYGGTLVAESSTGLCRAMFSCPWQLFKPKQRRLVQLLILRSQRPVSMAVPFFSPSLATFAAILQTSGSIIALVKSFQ
Kind of assay: GFET sensor, Or10a liposomes. It counts as biochemical. The conditions noted are these: Table 4, GFET. From the text:
The GFETs used in this study were fabricated from a predeposited graphene film on 300 nm SiO2 coated Si substrate from ACS Suppliers, USA. The FETs consist of a channel with dimensions of 100 μm width and […]. The key steps involved in fabricating the GFET on a Si/SiO2 substrate is schematically illustrated in FIG. 12. The source and drain electrodes were defined by photolithography and formed by successive deposition of Cr and Au. Both the drain and source electrodes were then encapsulated using AZ1518 photoresist and a channel with dimensions of 100 μm width and 10 μm length was left open to the environment for gating and functionalisation.
The OR liposomes were functionalised onto the graphene surface via a non-covalent route using PBASE as the molecular linker as shown in FIG. 13. The OR liposomes were diluted at 1:10 ratio with 1×PBS (pH7.4). The cleaned GFETs were immersed in 1 mM PBASE solution in methanol for 1 hour. […]
Electrical sensor measurements of OR liposome functionalised GFETs were carried out using top liquid gate morphology as shown in the schematic in FIG. 15 (a). […] The transfer characteristics of the different graphene FETs (FIG. 15 (b) to (g)) were measured at Vds=1 mV while the liquid gate voltage Vlg was swept from −0.5 V to 1 V with an interval of 20 mV. […]

As usually defined, the EC50 is the concentration at which the effect is half-maximal. A high value points to lower potency in that assay. For `COC(=O)c1ccccc1O` [methyl salicylate], the “Detection Range” value is recorded as 10^−12 to 10^−8 M and the EC50 worked out at 0.0156 nM.

(Values after patent publication US20210255184A1, “Biosensor Device and Methods” (The New Zealand Institute for Plant and Food Research …, priority 2018, published 2021).)
